Results as given in the supplement of paper PMC10307832.

How the values were obtained:
Assay in all cases: relative viability (nuclei count vs DMSO), 5 days (fraction); higher = more cells survive
Vemurafenib + Pictilisib = compound: CCCS(=O)(=O)Nc1ccc(F)c(C(=O)c2c[nH]c3ncc(-c4ccc(Cl)cc4)cc23)c1F [Vemurafenib] + CS(=O)(=O)N1CCN(Cc2cc3nc(-c4cccc5[nH]ncc45)nc(N4CCOCC4)c3s2)CC1 [Pictilisib] (partner 1 µM)
Outline: (§1)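 After 5 days of treatment, lung cancer cells in 1536-well plates were fixed and stained in a single step (final 0.05% Triton X-100, 1% formaldehyde, 1 ug/ml Hoechst) and their nuclei counted on 4× images. Treatment had been applied by pin tool the day after seeding as one drug alone or as a fixed anchor-drug dose with five library-drug doses (not always all listed) in √10 steps. Relative viability is the nuclei count of treated wells divided by that of vehicle wells, and values are medians of duplicate plates.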

Alpelisib + Dasatinib = compound: Cc1nc(NC(=O)N2CCC[C@H]2C(N)=O)sc1-c1ccnc(C(C)(C)C(F)(F)F)c1 [Alpelisib] + Cc1nc(Nc2ncc(C(=O)Nc3c(C)cccc3Cl)s2)cc(N2CCN(CCO)CC2)n1 [Dasatinib] (partner 0.075 µM)
Outline: as §1

OSI-027 + Navitoclax = compound: COc1cccc2cc(-c3nc([C@H]4CC[C@H](C(=O)O)CC4)n4ncnc(N)c34)[nH]c12 [OSI-027] + CC1(C)CCC(c2ccc(Cl)cc2)=C(CN2CCN(c3ccc(C(=O)NS(=O)(=O)c4ccc(N[C@H](CCN5CCOCC5)CSc5ccccc5)c(S(=O)(=O)C(F)(F)F)c4)cc3)CC2)C1 [Navitoclax] (partner 0.5 µM)
Outline: as §1

Alpelisib + Bortezomib = compound: Cc1nc(NC(=O)N2CCC[C@H]2C(N)=O)sc1-c1ccnc(C(C)(C)C(F)(F)F)c1 [Alpelisib] + CC(C)C[C@H](NC(=O)[C@H](Cc1ccccc1)NC(=O)c1cnccn1)B(O)O [Bortezomib] (partner 0.002 µM)
Outline: as §1

UMC-11
relative viability (Vemurafenib + Pictilisib; first compound 0.03162 µM): 0.867 | relative viability (Vemurafenib + Pictilisib; first compound 0.1 µM): 0.801 | relative viability (Vemurafenib + Pictilisib; first compound 0.3162 µM): 0.714 | relative viability (Vemurafenib + Pictilisib; first compound 1 µM): 0.348 | relative viability (Alpelisib + Dasatinib; first compound 0.04 µM): 0.426 | relative viability (Alpelisib + Dasatinib; first compound 0.1265 µM): 0.501 | relative viability (Alpelisib + Dasatinib; first compound 0.4 µM): 0.537 | relative viability (Alpelisib + Dasatinib; first compound 1.265 µM): 0.455 | relative viability (Alpelisib + Dasatinib; first compound 4 µM): 0.473 | relative viability (OSI-027 + Navitoclax; first compound 0.01 µM): 0.317 | relative viability (OSI-027 + Navitoclax; first compound 0.03162 µM): 0.29 | relative viability (OSI-027 + Navitoclax; first compound 0.1 µM): 0.29 | relative viability (OSI-027 + Navitoclax; first compound 0.3162 µM): 0.257 | relative viability (OSI-027 + Navitoclax; first compound 1 µM): 0.216 | relative viability (Alpelisib + Bortezomib; first compound 0.04 µM): 0.677 | relative viability (Alpelisib + Bortezomib; first compound 0.1265 µM): 0.981 | relative viability (Alpelisib + Bortezomib; first compound 0.4 µM): 0.672 | relative viability (Alpelisib + Bortezomib; first compound 1.265 µM): 0.734 | relative viability (Alpelisib + Bortezomib; first compound 4 µM): 0.465
